Literature values as cited in patent US4235881A, “Method for producing high potency factor VIII” (priority 1978, dated 1980).

Tested on: Factor VIII
Conditions: hemophiliacs having diminished ability to synthesize Factor VIII

## 1-Deamino-8-D-Arginine Vasopressin [dDAVP]
  ability to synthesize Factor VIII: increased to normal levels
